Data as given in patent US20190388360A1, “PHARMACEUTICAL PATCH COMPRISING LIDOCAINE AND DICLOFENAC FOR TREATING NEUROPATHIC PAIN” (TEIKOKU SEIYAKU CO., LTD., priority 2017, published 2019).

Experiments:
CFA-hindpaw inflammation = assay: CFA-hindpaw inflammation, paw pressure test (CFA-PPT), intraperitoneal injection; type: in vivo, rat; settings: ip; Lidocaine dose range 10 mg/kg to 46.4 mg/kg, Diclofenac dose range 21.5 mg/kg to 100 mg/kg
Method: An interaction study was performed as a single dose study in the CFA-hindpaw inflammation, paw pressure test.
In comparative example 1 and inventive examples 1 to 4 described below, a compound or combination of compounds was administered by intraperitoneal injection (FIGS. 1 to 9).
(§1) The pain was measured by pressing a pointer on the inflamed paw. The pointer exerts a force, increasing at a constant rate, monitored by a linear scale. Pain is deemed to be perceived one the rat starts to withdraw the paw. This value (withdrawal threshold in gram) is the pressure at which the animal feels pain (cut-off 450 g). Efficacy of the test compounds is expressed as a percent change of withdrawal threshold after compound administration to the pre-value (withdrawal threshold before compound administration).

[1] = test system: CFA-induced paw edema / mechanical-hyperalgesia; assay: CFA-hindpaw inflammation, paw pressure test (CFA-PPT), topical application to the paw as ointment or solution; type: in vivo, male albino rats; settings: Lidocaine 30 mg/ml to 60 mg/ml, Diclofenac 40 mg/ml to 80 mg/ml
Method: In comparative example 2 and inventive examples 5 to 8 as described below, a compound or combination of compounds was administered topically to the paw by means of an ointment or solution (FIGS. 10 to 18).
The efficacy was tested when a compound or a compositions of compounds was administered topically as an ointment or a solution. The study was performed on male albino rats (150-180 g body weight) to which an edema of paw was induced by injection of Complete Freunds Adjuvant (CFA). CFA is a composition of inactivated and dried Myobacteria tuberculoses, emulsified in mineral oil which is used as an immunopotentiator causing a painful reaction that lasts 7-8 days after subcutaneous injection.
The studies of comparative example 2 and inventive examples 5 to 8 were performed according to the following procedure: 50 μL of CFA were injected sub plantar into the right hind paw, inducing mechanical-hyperalgesia after 24 hours. […]
as §1, with “Pain is deemed to be perceived one the rat starts to withdraw the paw. This value (withdrawal threshold in gram) is the pressure at which the animal feels pain (cut-off 450 g).” left out

Structure (SMILES)	efficacy when administered alone (CFA-hindpaw inflammation)	efficacy when topically administered alone [1]
CCN(CC)CC(=O)Nc1c(C)cccc1C [Lidocaine, 2-(diethylamino)-N-(2,6-dimethylphenyl)acetamide]	dose dependent efficacy	dose dependent efficacy
O=C(O)Cc1ccccc1Nc1c(Cl)cccc1Cl [Diclofenac, 2-(2,6-dichloranilino) phenylacetic acid]	dose dependent efficacy	dose dependent efficacy
